According to US7786152B2, “Compound” (priority 2002, dated 2010):

Target: T1, Human 11βHSD1 (Homo sapiens, UniProt P28845)
T1 construct: the enzyme source, native hepatic enzyme compared to recombinant enzyme; tissue XenoTech H0610/Lot 0210078; host or cells: human hepatic microsomes
Assay: 11β HSD1 cortisol radioimmunoassay (RIA) with human hepatic microsomes
Type: biochemical
Conditions: read-out: % inhibition of Human 11βHSD1 @ 10 μM
Protocol: Biological Assay Development Using Human 11β-Hydroxysteroid Dehydrogenase Type 1. Standard Operating Procedure for the 11β-Hydroxysteroid Dehydrogenase Type 1 Cortisol Radioimmunoassay. 11β HSD1 Cortisol RIA
Enzyme assay buffer: 30 mM Tris-HCL, pH 7.2 containing 1 mM EDTA
Antibody binding buffer: 50 mM Tris-HCL, pH 8, containing 0.1 M NaCl and 0.1% gelatin
Dilute into assay buffer 1 in 25. Also dilute neat DMSO 1 in 25 into assay buffer for controls.
Dilute this 1 in 50 into assay buffer.
Prepare NADPH as a 1.8 mg/ml solution in assay buffer.
Mix these 3 solutions 1:1:1 to make a solution of sufficient volume for 25 μl additions to each sample. Add 0.5 μCi tritiated cortisone per 25 μl and mix the solution well.
Microsome preparation: Dilute stock 20 mg/ml solution 1 in 100 with assay buffer.
Dextran coated charcoal preparation: Make a 20 mg/ml solution in antibody binding buffer and chill on ice.
Enzyme assay: To a u-bottom polypropylene 96 well plate add:
25 μl compound dilution or diluted DMSO to controls, NSB's and blanks
10 μl 1 mM GA in DMSO (enzyme stop solution) to blanks
25 μl substrate mixture to all samples
50 μl diluted microsomes to all samples
Incubate plate for 30 min at 37° C. shaking
Add 10 μl enzyme stop solution to all wells except the blanks
Add 100 μl antibody solution to all wells except the NSB's, add antibody binding buffer to these wells
Incubate at 37° C. for 1 h
Chill plate on ice for 15 min
Add 50 μl/well charcoal solution and mix with an 8-channel pipette (4-5 aspirations)
Centrifuge at 4° C., 2000×g for 15 min
Transfer 100 μl supernatant into an Optiplate, also add 25 μl substrate mixture to 2 empty wells to indicate counting efficiency
Add 200 μl Microscint-40 to all wells and count on a Topcount
The 11β HSD1 enzyme assay was carried out following the standard operating procedure described above in u-bottom polypropylene 96 well plates or 1.5 ml Eppendorf tubes as indicated for each experiment. Subsequent to stopping the enzyme reaction, 100 μl antibody prepared in buffer 3 unless otherwise indicated was added to test samples and 100 μl buffer 3 was added to the NSB samples. The samples were incubated for 1 hour at 37° C. and the chilled on ice for 15 mins. Dextran coated charcoal (50 μl/sample) prepared to the indicated concentration in buffer 3 was added and the samples were mixed (vortex for tubes and aspiration 5 times with an 8-channel pipette for 96 well plates) and chilled for a further 10 min. The samples were centrifuged at 2000×g for 15 min at 4° C. to pellet the charcoal. Aliquots of the supernatant (100 μl) were transferred to an Optiplate and counted on the Topcount in 150-200 μl Microscint 40. In some experiments, aliquots of supernatant were transferred to scintillation vials and counted on the Tricarb LSC in 5 ml Ultima Gold scintillant.
Substrate saturation was examined. The enzyme assay was carried out exactly described in the methods section, in Buffer 3 with 10 μg/well microsomal protein and with [cold cortisone] as indicated. [3H]-cortisone was 0.5 μCi/sample throughout. The reaction was stopped after 30 min by the addition of 10 μl stop solution. The RIA was carried out exactly as indicated in the methods section.
It is reported that DMSO can both increase and reduce microsomal enzyme activity, depending on the concentration, presumably due to effects on the microsomal membranes.

T1 sequence (P28845 whole entry): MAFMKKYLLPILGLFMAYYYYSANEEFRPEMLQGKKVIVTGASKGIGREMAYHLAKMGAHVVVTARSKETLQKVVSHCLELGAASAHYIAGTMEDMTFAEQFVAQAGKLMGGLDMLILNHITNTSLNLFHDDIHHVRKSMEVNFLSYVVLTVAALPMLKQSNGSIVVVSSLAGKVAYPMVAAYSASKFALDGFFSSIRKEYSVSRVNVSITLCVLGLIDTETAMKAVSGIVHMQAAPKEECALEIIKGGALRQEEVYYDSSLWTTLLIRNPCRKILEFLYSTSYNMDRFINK

Row | SMILES | inhibition at 10 µM [%]
1 | Cc1c(Cl)cccc1S(=O)(=O)N(C)c1ccc2c(c1)sc(=O)n2C [compound 831] | 28
2 | Cc1c(Cl)cccc1S(=O)(=O)Nc1ccc2nc(C)n(C)c2c1 [compound 975] | 45
3 | Cc1c(Cl)cccc1S(=O)(=O)Nc1ccc2c(c1)nc(C)n2C [compound 976] | 110
4 | CCOC(=O)Cn1c(C)nc2ccc(NS(=O)(=O)c3cccc(Cl)c3C)cc21 [compound 977] | 61
5 | CCOC(=O)Cn1c(C)nc2cc(NS(=O)(=O)c3cccc(Cl)c3C)ccc21 [compound 978] | 60
6 | Cc1c(Cl)cccc1S(=O)(=O)Nc1ccc2[nH]ccc2c1 [compound 981] | 40
7 | Cc1c(Cl)cccc1S(=O)(=O)Nc1ccc2cc[nH]c2c1 [compound 982] | 53
8 | CC(=O)N1CCc2cc(NS(=O)(=O)c3cccc(Cl)c3C)ccc21 [compound 984] | 73
9 | Cc1nc2cc(NS(=O)(=O)c3cccc(Cl)c3C)ccc2[nH]1 [compound 985] | 61
10 | CCOC(=O)c1cc2cc(NS(=O)(=O)c3cccc(Cl)c3C)ccc2[nH]1 [compound 986] | 65
11 | CCN1CCc2cc(NS(=O)(=O)c3cccc(Cl)c3C)ccc21 [compound 987] | 62
12 | COc1ccc2nc(C)sc2c1NS(=O)(=O)c1cccc(Cl)c1C [compound 989] | 45
13 | Cc1nc2c(Cl)c(N(S(=O)(=O)c3cccc(Cl)c3C)S(=O)(=O)c3cccc(C)c3Cl)ccc2s1 [compound 991] | 51
14 | Cc1nc2c(Cl)c(NS(=O)(=O)c3cccc(Cl)c3C)ccc2s1 [compound 992] | 61
15 | CCCc1ccc(S(=O)(=O)Nc2ccc3sc(C)nc3c2Cl)cc1 [compound 994] | 83
16 | CCCc1ccc(S(=O)(=O)N(c2ccc3sc(C)nc3c2Cl)S(=O)(=O)c2ccc(CCC)cc2)cc1 [compound 995] | 68
17 | Cc1nc2c(NS(=O)(=O)c3cccc(Cl)c3C)c(C)ccc2s1 [compound 996] | 63
18 | Cc1nc2cc(C)c(N(S(=O)(=O)c3cccc(Cl)c3C)S(=O)(=O)c3cccc(Cl)c3C)cc2s1 [compound 997] | 51
19 | Cc1nc2cc(C)c(NS(=O)(=O)c3cccc(Cl)c3C)cc2s1 [compound 998] | 58
20 | Cc1nc2cc(C)c(NS(=O)(=O)c3cc(Cl)ccc3Cl)cc2s1 [compound 999] | 55
21 | Cc1nc2c(Cl)c(NS(=O)(=O)c3cccc(Cl)c3C)c(Cl)cc2s1 [compound 1017] | 60
22 | Cc1[nH]c2ccc(NS(=O)(=O)c3cccc(Cl)c3C)cc2c1C [compound 1018] | 66
23 | Cc1[nH]c2ccc(NS(=O)(=O)c3cc(Cl)ccc3Cl)cc2c1C [compound 1019] | 61
24 | CCCc1ccc(S(=O)(=O)Nc2ccc3[nH]c(C)c(C)c3c2)cc1 [compound 1020] | 64
25 | Cc1nc2ccc(C)c(NS(=O)(=O)c3cccc(Cl)c3C)c2s1 [compound 1021] | 54
26 | Cc1nc2cc(CNS(=O)(=O)c3cccc(Cl)c3C)ccc2s1 [compound 1029] | 78
27 | Cc1nc2cc(CN(Cc3ccc4sc(C)nc4c3)S(=O)(=O)c3cccc(Cl)c3C)ccc2s1 [compound 1030] | 61
